Reference: ChEMBL document CHEMBL1201862, “PubChem BioAssay data set” (2004)
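How tested: cells in 96-well plates exposed to compound for 48 hours at five concentrations. Abbreviation: GI50, concentration required for 50% inhibition of growth.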 Calls of active or inactive are those of the source. Rule as the data show it: active = GI50 up to about 1.1 µM and inactive = higher.

Legend:
Assay in all cases: DTP human tumour cell line panel, 48 h
RXF 393 = tested on: RXF 393
LOX IMVI = tested on: LOX IMVI
HOP-62 = tested on: HOP-62
EKVX = tested on: EKVX
UACC-257 = tested on: UACC-257
SW-620 = tested on: SW-620
NCI-H460 = tested on: NCI-H460
K562 = tested on: K562
RPMI-8226 = tested on: RPMI-8226
Malme-3M = tested on: Malme-3M
HL-60 = tested on: HL-60
MDA-MB-231 = tested on: MDA-MB-231
MDA-N = tested on: MDA-N
M14 = tested on: M14
SK-MEL-28 = tested on: SK-MEL-28
COLO 205 = tested on: COLO 205
NCI-H226 = tested on: NCI-H226
DU-145 = tested on: DU-145
Hs-578T = tested on: Hs-578T

Row | SMILES | GI50 (RXF 393) | GI50 (LOX IMVI) | GI50 (HOP-62) | GI50 (EKVX) | GI50 (UACC-257) | GI50 (SW-620) | GI50 (NCI-H460) | GI50 (K562) | GI50 (RPMI-8226) | GI50 (Malme-3M) | GI50 (HL-60) | GI50 (MDA-MB-231) | GI50 (MDA-N) | GI50 (M14) | GI50 (SK-MEL-28) | GI50 (COLO 205) | GI50 (NCI-H226) | GI50 (DU-145) | GI50 (Hs-578T)
1 | COc1cc(C2S/C(=C/c3ccccc3)C(=O)N2c2cc(Cl)ccc2Cl)cc(OC)c1OC (stereo not given) | 39.4 µM (inactive) | 15.8 µM (inactive) | 46.7 µM (inactive) | 24.2 µM (inactive) | > 100 µM (inactive) | 36 µM (inactive) | > 100 µM (inactive) | 47 µM (inactive) | 36.2 µM (inactive) | 32.8 µM (inactive) | 31 µM (inactive) | 40.3 µM (inactive) | 34.5 µM (inactive) | 19.6 µM (inactive) | 64.9 µM (inactive) | 55.3 µM (inactive) | 40.4 µM (inactive) | 35 µM (inactive) | –
2 | O=C1CC(CC(O)C(O)CO)CC(=O)N1 (stereo not given) | – | > 100 µM (inactive) | > 100 µM (inactive) | > 100 µM (inactive) | > 100 µM (inactive) | > 100 µM (inactive) | > 100 µM (inactive) | > 100 µM (inactive) | > 100 µM (inactive) | > 100 µM (inactive) | > 100 µM (inactive) | > 100 µM (inactive) | > 100 µM (inactive) | > 100 µM (inactive) | > 100 µM (inactive) | – | > 100 µM (inactive) | > 100 µM (inactive) | > 100 µM (inactive)
3 | O=C1NNC2NC(=O)C3(NN2C1=O)c1ccccc1-c1ccccc13 (stereo not given) | > 100 µM (inactive) | > 100 µM (inactive) | > 100 µM (inactive) | > 100 µM (inactive) | > 100 µM (inactive) | > 100 µM (inactive) | > 100 µM (inactive) | > 100 µM (inactive) | – | > 100 µM (inactive) | > 100 µM (inactive) | > 100 µM (inactive) | > 100 µM (inactive) | > 100 µM (inactive) | > 10 µM (inactive) | > 100 µM (inactive) | > 100 µM (inactive) | > 100 µM (inactive) | > 100 µM (inactive)
4 | CN(CCNC(=O)c1nn(-c2ccccc2)c2c1Cc1ccccc1-2)CCNC(=O)c1nn(-c2ccccc2)c2c1Cc1ccccc1-2 | 1.57 µM (inactive) | 1.74 µM (inactive) | 1.79 µM (inactive) | 4.44 µM (inactive) | 1.79 µM (inactive) | 1.48 µM (inactive) | 1.69 µM (inactive) | 2.11 µM (inactive) | 4.01 µM (inactive) | 1.82 µM (inactive) | 1.32 µM (inactive) | 1.82 µM (inactive) | 1.73 µM (inactive) | 1.79 µM (inactive) | 1.69 µM (inactive) | 1.79 µM (inactive) | – | 2.59 µM (inactive) | 1.87 µM (inactive)
5 | Cc1ccc(C)c2c1C/C(=C\c1ccccc1C(=O)O)C2=O | > 100 µM (inactive) | 54.2 µM (inactive) | > 100 µM (inactive) | 45.7 µM (inactive) | > 100 µM (inactive) | > 100 µM (inactive) | > 100 µM (inactive) | 87.7 µM (inactive) | 27.7 µM (inactive) | > 100 µM (inactive) | 40.9 µM (inactive) | – | 87.3 µM (inactive) | > 100 µM (inactive) | > 100 µM (inactive) | > 100 µM (inactive) | 20.8 µM (inactive) | 97.3 µM (inactive) | > 100 µM (inactive)
6 | CSc1cc(Br)ccc1-n1c(C(=O)c2ccccc2)c(SC)n(-c2ccccc2)c1=O | – | > 100 µM (inactive) | > 100 µM (inactive) | > 100 µM (inactive) | > 100 µM (inactive) | 19 µM (inactive) | 50.9 µM (inactive) | 4.81 µM (inactive) | – | – | – | 39.8 µM (inactive) | 18.5 µM (inactive) | 96.2 µM (inactive) | > 100 µM (inactive) | 47.2 µM (inactive) | > 100 µM (inactive) | – | > 100 µM (inactive)
7 | CN(C)c1ccc(/C=C/c2ccnc3ccccc23)cc1 | 54.3 µM (inactive) | 53.3 µM (inactive) | > 100 µM (inactive) | 49 µM (inactive) | > 100 µM (inactive) | 39.4 µM (inactive) | 47.9 µM (inactive) | 33.5 µM (inactive) | 51.1 µM (inactive) | 53.2 µM (inactive) | 31.6 µM (inactive) | 23.3 µM (inactive) | 17.7 µM (inactive) | 65.8 µM (inactive) | 72.6 µM (inactive) | 28.8 µM (inactive) | – | 47.9 µM (inactive) | 14.5 µM (inactive)
8 | O=C1c2cccc(NCCCNCCO)c2C(=O)c2cccc(NCCCNCCO)c21 | 2.13 µM (inactive) | 2.29 µM (inactive) | 1.96 µM (inactive) | 2.94 µM (inactive) | 6.08 µM (inactive) | 2.4 µM (inactive) | 1.68 µM (inactive) | – | 2.44 µM (inactive) | – | 1.27 µM (inactive) | 1.42 µM (inactive) | 1.71 µM (inactive) | 3.61 µM (inactive) | 1.83 µM (inactive) | 1.8 µM (inactive) | – | 2.62 µM (inactive) | 0.627 µM (active)
9 | COC(=O)C1(N2CCOCC2)CCC([C@@H](c2ccccc2)C(C)[N+](=O)[O-])C1 (stereo not given in full) | – | 39 µM (inactive) | > 100 µM (inactive) | > 100 µM (inactive) | 28 µM (inactive) | 45.2 µM (inactive) | > 100 µM (inactive) | 51.6 µM (inactive) | 13 µM (inactive) | > 100 µM (inactive) | 85.3 µM (inactive) | > 100 µM (inactive) | > 100 µM (inactive) | > 100 µM (inactive) | > 100 µM (inactive) | 64.6 µM (inactive) | > 100 µM (inactive) | 19.7 µM (inactive) | > 100 µM (inactive)
10 | CC(=O)c1[nH]c(NCc2ccccc2)c(C(=S)Nc2ccccc2)c1N | 18.9 µM (inactive) | 17.4 µM (inactive) | 19.9 µM (inactive) | 27.1 µM (inactive) | 24.2 µM (inactive) | 32.1 µM (inactive) | 22.8 µM (inactive) | 24.9 µM (inactive) | – | 19.7 µM (inactive) | 5.32 µM (inactive) | 15.1 µM (inactive) | 18.7 µM (inactive) | 18.9 µM (inactive) | 24.2 µM (inactive) | 28.4 µM (inactive) | 18.2 µM (inactive) | 28.8 µM (inactive) | 24 µM (inactive)
11 | CCOC(=O)C(C(=O)OCC)=C1NC2(c3ccccc3Nc3ccccc32)C(C#N)S1 (stereo not given) | 12.9 µM (inactive) | 13.6 µM (inactive) | 12.2 µM (inactive) | 13.7 µM (inactive) | 12.8 µM (inactive) | 12.4 µM (inactive) | 3.79 µM (inactive) | 7.53 µM (inactive) | 3.01 µM (inactive) | 15.3 µM (inactive) | 21.9 µM (inactive) | – | 14.4 µM (inactive) | 7.46 µM (inactive) | 17 µM (inactive) | 6.75 µM (inactive) | 12 µM (inactive) | 12 µM (inactive) | 19.1 µM (inactive)
12 | COC(=O)CCCc1nc2ccccc2nc1/N=N/c1ccccc1 | 62.5 µM (inactive) | 16.6 µM (inactive) | 52.5 µM (inactive) | 73.6 µM (inactive) | 45.9 µM (inactive) | 47.5 µM (inactive) | 49.8 µM (inactive) | 19.3 µM (inactive) | 22.9 µM (inactive) | 17.4 µM (inactive) | 2.57 µM (inactive) | > 100 µM (inactive) | 48.2 µM (inactive) | 27.6 µM (inactive) | 38.5 µM (inactive) | 3.71 µM (inactive) | 43 µM (inactive) | 48.3 µM (inactive) | –
13 | Cc1cc2c(cc1C)C(=O)/C(=N/Nc1ccc(F)cc1)CCO2 | – | 65.8 µM (inactive) | > 100 µM (inactive) | > 100 µM (inactive) | > 100 µM (inactive) | > 100 µM (inactive) | > 100 µM (inactive) | > 100 µM (inactive) | > 100 µM (inactive) | 37 µM (inactive) | 26.4 µM (inactive) | > 100 µM (inactive) | > 100 µM (inactive) | 87.5 µM (inactive) | > 100 µM (inactive) | > 100 µM (inactive) | > 100 µM (inactive) | > 100 µM (inactive) | > 100 µM (inactive)
14 | C=C1CC(COc2cc(=O)oc3ccccc23)(c2ccccc2)OC1=O (stereo not given) | – | 1.45 µM (inactive) | 8.53 µM (inactive) | 6.27 µM (inactive) | 1.99 µM (inactive) | 1.17 µM (inactive) | 9.29 µM (inactive) | 0.637 µM (active) | 0.507 µM (active) | 1.33 µM (inactive) | 0.407 µM (active) | 3.61 µM (inactive) | 2.05 µM (inactive) | 1.51 µM (inactive) | 2.41 µM (inactive) | 1.51 µM (inactive) | 8.17 µM (inactive) | 2.44 µM (inactive) | 3.53 µM (inactive)
15 | N#CCC1COc2ccccc2O1 (stereo not given) | – | > 10 µM (inactive) | > 10 µM (inactive) | – | > 10 µM (inactive) | > 10 µM (inactive) | – | > 10 µM (inactive) | > 10 µM (inactive) | > 10 µM (inactive) | > 10 µM (inactive) | > 10 µM (inactive) | > 10 µM (inactive) | > 10 µM (inactive) | > 10 µM (inactive) | > 10 µM (inactive) | – | > 10 µM (inactive) | > 10 µM (inactive)
